From PMC8126888 (RSC Medicinal Chemistry, 2020)
Like-named read-outs stand apart in the source and are kept apart here.

What was measured:
[1] = tested on: Leishmania infantum MHOM/MA(BE)/67/ITMAP263 intracellular amastigotes; conditions: for L. Inf. pIC50: from L. infantum intracellular amastigote IC50
MRC-5SV2 cells = assay: Cytotoxicity assay on MRC-5SV2 cells (resazurin)
[2] = tested on: L. donovani MHOM/ET/67/L82 intracellular amastigotes; conditions: read-out: L. donovani MHOM/ET/67/L82 intracellular amastigotes IC50
[3] = tested on: primary peritoneal mouse macrophages (PMM); conditions: for SI (vs PMM): PMM IC50 / L. infantum IC50
[4] = tested on: Trypanosoma cruzi, Tulahuen CL2, beta-galactosidase strain; assay: microbe, parasite or virus in culture; conditions: MRC5, read-out: T. cruzi Tulahuen C4 (LacZ) IC50
in vitro [5] = conditions: mouse, microsomes, pH 7.4, MLM CLint, mouse liver microsomes
in vitro [6] = conditions: human, microsomes, pH 7.4, HLM CLint, human liver microsomes
in vitro [7] = conditions: PAMPA
[8] = tested on: Leishmania infantum MHOM/MA(BE)/67/ITMAP263 intracellular amastigotes; assay: microbe, parasite or virus in culture; conditions: Macrophage, in Mus musculus
[9] = tested on: primary peritoneal mouse macrophages (PMM); assay: cells; conditions: Macrophage, read-out: PMM IC50
in vitro [10] = conditions: human
physchem = conditions: HPLC, Ascentis Express RP Amide column, pH 7.4, eLogD, experimental
[11] = read-out: L. Inf. pIC50, from L. infantum intracellular amastigote IC50 (converted)
[12] = read-out: L. infantum MHOM/MA(BE)/67/ITMAP263 intracellular amastigotes IC50, intracellular amastigotes

Row | SMILES | IC50 ([1]; read-out: L. infantum MHOM/MA(BE)/67/ITMAP263 intracellular amastigotes IC50) | CC50 (MRC-5SV2 cells) | IC50 [2] | IC50 ([3]; read-out: PMM IC50) | SI (vs PMM) [3] | IC50 [4] | microsomal CLint at 0.5 μM (in vitro [5]) | microsomal CLint at 0.5 μM (in vitro [6]) | Papp (in vitro [7]) | IC50 [8, 11] | IC50 [8, 12] | IC50 [9] | CC50 at 3 days (in vitro [10]) | L. Inf. pIC50 [1] | chromatographic logD (physchem)
1 | COc1ccc(S(=O)(=O)N(C)C)cc1NC(=O)C1CCCc2ccccc21 (stereo not drawn) [Compound Z300980532] | > 32 µM | > 32 µM | > 32 µM | > 32 µM |  |  |  |  |  |  |  |  |  |  | 
2 | CCCOc1cc(C)c(C)cc1S(=O)(=O)NC1CCCC1 [Compound Z1197866122] |  |  | > 32 µM |  | 1 |  |  |  |  |  |  |  |  |  | 
3 | COc1ccc(S(=O)(=O)N(Cc2ccccc2)Cc2ccccc2)cc1 [DNDI0003367309] |  |  |  |  |  | > 64 µM | 2410 µL/min/mg | 184 µL/min/mg | 1 ×10⁻⁶ cm/s | 45.7 µM | 45.4 µM | > 64 µM | > 64 µM |  | 
4 | CCCCOc1cc(C)c(Cl)cc1S(=O)(=O)NCc1cccnc1 [Compound Z969575790] |  |  | 25.4 µM |  | 2 |  |  |  |  |  |  |  |  | 4.78 | 
5 | COC(=O)[C@H](CO)NS(=O)(=O)c1cc(Cl)ccc1OC [DNDI0003369004] |  |  |  |  |  | > 64 µM | 230 µL/min/mg | 112 µL/min/mg | 9.07 ×10⁻⁶ cm/s | > 64 µM | > 64 µM | > 64 µM | > 64 µM |  | 1.8
6 | COc1ccc(C#N)cc1S(=O)(=O)N(Cc1ccc(F)cc1)Cc1ccccn1 [DNDI0003370083] |  |  |  |  |  | 28.9 µM | 1840 µL/min/mg | 694 µL/min/mg | 11.9 ×10⁻⁶ cm/s | 3.16 µM | 3.19 µM | > 64 µM | > 64 µM |  | 3.6
7 | O=S(=O)(NC(CO)Cc1ccccc1)c1ccccc1Br (stereo not drawn) [DNDI0003369449] |  |  |  |  |  | 33.4 µM | 1370 µL/min/mg | 244 µL/min/mg | 17.4 ×10⁻⁶ cm/s | > 64 µM | > 64 µM | > 64 µM | > 64 µM |  | 3
8 | O=S(=O)(NCc1ccc(F)cc1)c1cccnc1OCc1ccccc1 [DNDI0003369120] |  |  |  |  |  | 12.7 µM | 2750 µL/min/mg | 2740 µL/min/mg | 12.8 ×10⁻⁶ cm/s | 8.51 µM | 8.42 µM | 32 µM | 20.2 µM |  | 4
9 | CCOCCOc1ncccc1S(=O)(=O)NCc1ccc(F)cc1 [DNDI0003369119] |  |  |  |  |  | > 64 µM | 1530 µL/min/mg | 2210 µL/min/mg | 23.8 ×10⁻⁶ cm/s | 33.1 µM | 33.3 µM | > 64 µM | > 64 µM |  | 3.2
10 | COc1ccc(OC)c(S(=O)(=O)N(Cc2ccc(F)cc2)Cc2ccccn2)c1 [DNDI0003368394] |  |  |  |  |  | 20.9 µM | 344 µL/min/mg | 151 µL/min/mg | 60.1 ×10⁻⁶ cm/s | 0.977 µM | 0.97 µM | > 64 µM | > 64 µM |  | 2.7
11 | O=S(=O)(NCc1ccc(F)cc1)c1cccnc1NCCN1CCOCC1 [DNDI0003369121] |  |  |  |  |  | > 64 µM | 1950 µL/min/mg | 1850 µL/min/mg | 1.85 ×10⁻⁶ cm/s | > 64 µM | > 64 µM | > 64 µM | > 64 µM |  | 3.1
12 | COc1ccc(OC)c(S(=O)(=O)N(CCn2nc(C)cc2C)Cc2ccccc2)c1 [DNDI0003367308] |  |  |  |  |  | 8.09 µM | 3100 µL/min/mg | 2270 µL/min/mg | 10.9 ×10⁻⁶ cm/s | 6.17 µM | 6.23 µM | > 64 µM | 51 µM |  | 4.1
13 | CCCCCOc1cc(C)c(Cl)cc1S(=O)(=O)NCc1ccco1 [Compound Z1172171148] |  |  | 4.76 µM |  | 30 |  |  |  |  |  |  |  |  | 5.97 | 
14 | COc1ccc(Cl)cc1S(=O)(=O)N(CC(=O)c1ccc(F)cc1)Cc1ccccc1 [DNDI0003371155] |  |  |  |  |  | > 64 µM | 1900 µL/min/mg |  | 0.24 ×10⁻⁶ cm/s | 41.7 µM | 41.8 µM | 45.2 µM | > 64 µM |  | 4.8
15 | COc1ccc(CN2CCOCC2)cc1S(=O)(=O)N(Cc1ccc(F)cc1)Cc1ccc(F)cc1 [DNDI0003370082] |  |  |  |  |  | 1.56 µM | 3200 µL/min/mg | 49 µL/min/mg | 0.74 ×10⁻⁶ cm/s | 0.525 µM | 0.52 µM | > 64 µM | > 64 µM |  | 
16 | O=C(CN(Cc1ccccc1)S(=O)(=O)c1cc(F)ccc1F)c1ccc(F)cc1 [DNDI0003371157] |  |  |  |  |  | > 64 µM | 1380 µL/min/mg | 756 µL/min/mg | 0.83 ×10⁻⁶ cm/s | > 64 µM | > 64 µM | > 64 µM | > 64 µM |  | 4.6
17 | O=S(=O)(c1ccccc1Br)N(Cc1ccccc1)C(CO)Cc1ccccc1 (stereo not drawn) [DNDI0003369450] |  |  |  |  |  | 5.54 µM | 2180 µL/min/mg | 1560 µL/min/mg | 2.82 ×10⁻⁶ cm/s | > 64 µM | > 64 µM | > 64 µM | 21.3 µM |  | 4.6
18 | CCCCOc1cc(C)c(Cl)cc1S(=O)(=O)NCc1cccs1 [Compound Z1198037505] |  |  | 5.38 µM |  | 41 |  |  |  |  |  |  |  |  | 6.1 | 
19 | COc1ncccc1S(=O)(=O)N(Cc1ccc(F)cc1)Cc1ccccn1 [DNDI0003370084] |  |  |  |  |  | 33.6 µM | 4620 µL/min/mg | 696 µL/min/mg | 27.4 ×10⁻⁶ cm/s | 7.41 µM | 7.39 µM | > 64 µM | > 64 µM |  | 3.5
20 | O=S(=O)(NC(CO)Cc1ccccc1)c1cc(F)ccc1F (stereo not drawn) [DNDI0003368459] |  |  |  |  |  | > 64 µM | 274 µL/min/mg | 42 µL/min/mg | 10.6 ×10⁻⁶ cm/s | > 64 µM | > 64 µM | > 64 µM | > 64 µM |  | 2.8
21 | CN(C)CCOc1ccc(F)cc1S(=O)(=O)N(Cc1ccc(F)cc1)Cc1ccc(F)cc1 [DNDI0003371161] |  |  |  |  |  | 2.17 µM | 845 µL/min/mg | 214 µL/min/mg | 0.06 ×10⁻⁶ cm/s | 2.19 µM | 2.19 µM | 8 µM | 7.62 µM |  | 4.9
22 | O=S(=O)(c1cc(F)ccc1F)N(Cc1ccccc1)C(CO)CO [DNDI0003369448] |  |  |  |  |  | 31.6 µM | 97 µL/min/mg | < 23 µL/min/mg | 11.2 ×10⁻⁶ cm/s | 57.5 µM | 57 µM | > 64 µM | > 64 µM |  | 2.9
